Reference: PubChem BioAssay AID2060500 (Molecular Pharmacology Branch, DTP, NCI, 2025)
pIC50: −log10 of the molar value.

Tested on: 596521-263-R-J1-PDC complex spheroids, viability % of control
Test: Anticancer human tumor 596521-263-R-J1-PDC patient-derived soft tissue sarcoma cell line growth inhibition [GQUAD]
Details: for pIC50: curve of first compound; for viability, T/C: stronger effect = lower value
Summary of the method: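 Tumor cells were grown as complex spheroids with HUVEC endothelial cells and mesenchymal stem cells as stroma. G-quadruplex stabilizers were combined with targeted agents over half-log dilutions from near the clinical Cmax, or from 10 microM.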

[1] = second compound 0.0316 µM, first compound 0.0316 µM
[2] = second compound 0.0316 µM, first compound 0.1 µM
[3] = second compound 0.0316 µM, first compound 0.316 µM
[4] = second compound 0.0316 µM, first compound 1 µM
[5] = second compound 0.0316 µM, first compound 3.16 µM
[6] = second compound 0.0316 µM, first compound 10 µM
[7] = second compound 0.1 µM, first compound 0.0316 µM
[8] = second compound 0.1 µM, first compound 0.1 µM
[9] = second compound 0.1 µM, first compound 0.316 µM
[10] = second compound 0.1 µM, first compound 1 µM
[11] = second compound 0.1 µM, first compound 3.16 µM
[12] = second compound 0.1 µM, first compound 10 µM
[13] = second compound 0.316 µM, first compound 0.0316 µM
[14] = second compound 0.316 µM, first compound 0.1 µM
[15] = second compound 0.316 µM, first compound 0.316 µM
[16] = second compound 0.316 µM, first compound 1 µM
[17] = second compound 0.316 µM, first compound 3.16 µM
[18] = second compound 0.316 µM, first compound 10 µM
[19] = second compound 1 µM, first compound 0.0316 µM
[20] = second compound 1 µM, first compound 0.1 µM
[21] = second compound 1 µM, first compound 0.316 µM
[22] = second compound 1 µM, first compound 1 µM
[23] = second compound 1 µM, first compound 3.16 µM
[24] = second compound 1 µM, first compound 10 µM
[25] = second compound 3.16 µM, first compound 0.0316 µM
[26] = second compound 3.16 µM, first compound 0.1 µM
[27] = second compound 3.16 µM, first compound 0.316 µM
[28] = second compound 3.16 µM, first compound 1 µM
[29] = second compound 3.16 µM, first compound 3.16 µM
[30] = second compound 3.16 µM, first compound 10 µM
[31] = second compound 10 µM, first compound 0.0316 µM
[32] = second compound 10 µM, first compound 0.1 µM
[33] = second compound 10 µM, first compound 0.316 µM
[34] = second compound 10 µM, first compound 1 µM
[35] = second compound 10 µM, first compound 3.16 µM
[36] = second compound 10 µM, first compound 10 µM
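Also: spheroids exposed to drugs for 7 days before viability reading.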
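For viability, T/C in this document: 100% = DMSO vehicle control viability.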

CC(C)n1c(=O)n(C)c2cnc3cc(F)c(-c4ccc(OCCCN5CCCCC5)nc4)cc3c21 + Cc1[nH]c2ccc(F)cc2c1-c1nc2c3cccnc3c3ncccc3c2[nH]1
pIC50 (second compound 0.0316 µM): < 5.00
pIC50 (second compound 0.1 µM): < 5.00
pIC50 (second compound 0.316 µM): < 5.00
pIC50 (second compound 1 µM): < 5.00
pIC50 (second compound 3.16 µM): < 5.00
pIC50 (second compound 10 µM): < 5.00
viability, T/C [1]: 100%
viability, T/C [2]: 82.2%
viability, T/C [3]: 81.5%
viability, T/C [4]: 87.1%
viability, T/C [5]: 80%
viability, T/C [6]: 73.4%
viability, T/C [7]: 95%
viability, T/C [8]: 112%
viability, T/C [9]: 91%
viability, T/C [10]: 93.9%
viability, T/C [11]: 86%
viability, T/C [12]: 64.9%
viability, T/C [13]: 106%
viability, T/C [14]: 102%
viability, T/C [15]: 91.4%
viability, T/C [16]: 83.7%
viability, T/C [17]: 81.9%
viability, T/C [18]: 57.6%
viability, T/C [19]: 85%
viability, T/C [20]: 89%
viability, T/C [21]: 97%
viability, T/C [22]: 89.4%
viability, T/C [23]: 86.8%
viability, T/C [24]: 72.1%
viability, T/C [25]: 87.9%
viability, T/C [26]: 90.3%
viability, T/C [27]: 81.4%
viability, T/C [28]: 76.3%
viability, T/C [29]: 80.6%
viability, T/C [30]: 53%
viability, T/C [31]: 74.4%
viability, T/C [32]: 78.6%
viability, T/C [33]: 79.8%
viability, T/C [34]: 79.1%
viability, T/C [35]: 62.1%
viability, T/C [36]: 50.7%

CC1COCCN1c1cc(C2(O)CC3CCC(C2)O3)c2cnn(-c3ccn[nH]3)c2n1 (centres undefined) + Cc1[nH]c2ccc(F)cc2c1-c1nc2c3cccnc3c3ncccc3c2[nH]1
pIC50 (second compound 0.0316 µM): 6.55
pIC50 (second compound 0.1 µM): 6.57
pIC50 (second compound 0.316 µM): 6.68
pIC50 (second compound 1 µM): 6.49
pIC50 (second compound 3.16 µM): 6.63
pIC50 (second compound 10 µM): 6.88
viability, T/C [1]: 68.8%
viability, T/C [2]: 56.8%
viability, T/C [3]: 52.6%
viability, T/C [4]: 32.8%
viability, T/C [5]: 23%
viability, T/C [6]: 12.4%
viability, T/C [7]: 77.5%
viability, T/C [8]: 60.1%
viability, T/C [9]: 48.9%
viability, T/C [10]: 35.1%
viability, T/C [11]: 25.6%
viability, T/C [12]: 14.6%
viability, T/C [13]: 64.8%
viability, T/C [14]: 54.1%
viability, T/C [15]: 48.8%
viability, T/C [16]: 34.2%
viability, T/C [17]: 25.3%
viability, T/C [18]: 13.1%
viability, T/C [19]: 72.4%
viability, T/C [20]: 62.7%
viability, T/C [21]: 52%
viability, T/C [22]: 33.8%
viability, T/C [23]: 25.6%
viability, T/C [24]: 16.1%
viability, T/C [25]: 63.9%
viability, T/C [26]: 59.4%
viability, T/C [27]: 47%
viability, T/C [28]: 32.2%
viability, T/C [29]: 26%
viability, T/C [30]: 14.9%
viability, T/C [31]: 54.4%
viability, T/C [32]: 55%
viability, T/C [33]: 42.4%
viability, T/C [34]: 27.6%
viability, T/C [35]: 25.3%
viability, T/C [36]: 14.2%
